Reference: US20240058422A1, “GLUCAGON-LIKE PEPTIDE-1 RECEPTOR ANTAGONISTS” (INDIANA UNIVERSITY RESEARCH AND TECHNOLOGY CORPORATION, priority 2022, published 2024)
Values after ≈ are worked out from the molar mass of the structure shown. Where two headings read alike, the source gives them in different places. Starred links: 1 amine or outer side, 2 acyl side, 3 side chain; linkers in the order of their positions; H or OH if unused. Non-standard residues stand in square brackets, D forms with d. Residues, ends and D or L forms follow the SMILES beside them. Groups on a side chain read outwards from the residue. *: point of attachment. γGlu = O=C(O)[C@H](CCC(=O)[*:2])N[*:1]; Palmitoyl = CCCCCCCCCCCCCCCC(=O)*; AEEA = NCCOCCOCC(=O)O; Aib = CC(C)(N)C(=O)O

Assays:
GLP-1R = GLP-1R (Homo sapiens, UniProt P43220); assay: GLP-1 receptor-mediated cAMP induction, luciferase reporter gene antagonism assay; type: cell-based; design: host or cells: HEK 293; conditions: antagonism of 0.05 nM GLP-1, HEK 293 cells
Chain of GLP-1R (P43220 24-463): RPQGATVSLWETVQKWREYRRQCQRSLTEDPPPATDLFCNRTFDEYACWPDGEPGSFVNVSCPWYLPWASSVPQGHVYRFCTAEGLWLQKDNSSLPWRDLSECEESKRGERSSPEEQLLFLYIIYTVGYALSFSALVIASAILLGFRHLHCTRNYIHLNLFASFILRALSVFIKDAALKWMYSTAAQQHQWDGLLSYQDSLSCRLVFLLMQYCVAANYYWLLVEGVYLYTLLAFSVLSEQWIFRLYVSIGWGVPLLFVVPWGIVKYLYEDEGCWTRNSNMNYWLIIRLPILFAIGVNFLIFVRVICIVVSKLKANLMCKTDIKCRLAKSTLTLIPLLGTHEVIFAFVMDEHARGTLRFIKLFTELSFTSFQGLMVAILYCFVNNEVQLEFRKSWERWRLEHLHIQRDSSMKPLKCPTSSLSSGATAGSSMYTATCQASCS
Protocol: GLP-1 Receptor-Mediated cAMP Induction The ability of peptides to stimulate or block cAMP induction at the GLP-1 receptor was examined by a luciferase-based reporter gene assay. Cotransfection of HEK 293 cells with the human GLP-1 receptor (Open Biosystems) and a cAMPinducible (cAMPresponsive element) luciferase gene constituted the cellular construct where receptor activation could be measured. Bioassays were performed by first serum depriving the cells for 16 h in 0.25% bovine growth serum (HyClone)-supplemented Dulbecco's modified Eagle's medium (Invitrogen) and then adding serial dilutions of the peptides over the appropriate concentration ranges in 96-well poly-D-lysine-coated plates (BD Biosciences). For antagonism assays, a constant concentration of GLP-1 (0.05 nM) was added to the assay plate after the diluted peptides. Incubation continued for 5 h at 37° C., 5% CO2 and was followed by the addition of an equivalent volume (100 μL) of LucLite luminescence substrate reagent (Perkin-Elmer). MicroBeta 1450 liquid scintillation counting (Perkin-Elmer) quantified the luminescence signal in counts per second (cps) after shaking the plate at 600 rpm for 3 min. Data was plotted using Origin software (OriginLab) and the effective concentration 50 (EC50) or inhibitory concentration 50 (IC50) was determined by sigmoidal fitting. Potency was determined by comparative analysis of relative EC50 or IC50 values. Each experiment was repeated at least three times with each sample assayed in duplicate.

[1] = 80 mM ammonium bicarbonate buffer, pH 7.7
[2] = Table 5, d-AA variants of 9-40am Jant4 K40[C16], read-out: Bioactivity KC50
[3] = PBS, pH 7.7, Solubility [mg/mL] PBS pH7.7, Table 4, PBS pH7.7
[4] = Table 4, Aib variants of 9-40am Jant4 K40[C16], read-out: Bioactivity IC50

Compound | solubility (Solubility in buffer; [1]) [µg/mL] | IC50 (GLP-1R; [2]) [nM] | also measured
CCCCCCCCCCCCCCCC(=O)NCCCC[C@H](NC(=O)[C@H](CO)NC(=O)[C@@H]1CCCN1C(=O)[C@@H]1CCCN1C(=O)[C@@H]1CCCN1C(=O)[C@H](C)NC(=O)CNC(=O)[C@H](CO)NC(=O)[C@H](CO)NC(=O)[C@@H]1CCCN1C(=O)CNC(=O)CNC(=O)[C@H](CCCCN)NC(=O)[C@@H](NC(=O)[C@H](CC(C)C)NC(=O)[C@H](Cc1c[nH]c2ccccc12)NC(=O)[C@H](C)NC(=O)[C@@H](NC(=O)[C@H](Cc1ccccc1)NC(=O)[C@H](CCC(=O)O)NC(=O)[C@H](CCCNC(=N)N)NC(=O)[C@@H](NC(=O)[C@H](C)NC(=O)[C@@H](CCC(N)=O)NC(=O)[C@H](CCC(=O)O)NC(=O)[C@H](CCC(=O)O)NC(=O)[C@H](CC(C)C)NC(=O)[C@H](Cc1ccc(O)cc1)NC(=O)[C@H](CO)NC(=O)[C@H](CO)NC(=O)[C@@H](NC(=O)[C@@H](N)CC(=O)O)C(C)C)C(C)C)[C@@H](C)CC)C(C)C)C(N)=O [compound 86] (H-DVSSYLEE[dQ]AVREFIAWLVKGGPSSGAPPPSK(Palmitoyl)-NH2) | 2200 (≈ 604 µM) | 41 | 
CCCCCCCCCCCCCCCC(=O)NCCCC[C@H](NC(=O)[C@H](CO)NC(=O)[C@@H]1CCCN1C(=O)[C@@H]1CCCN1C(=O)[C@@H]1CCCN1C(=O)[C@H](C)NC(=O)CNC(=O)[C@H](CO)NC(=O)[C@H](CO)NC(=O)[C@@H]1CCCN1C(=O)CNC(=O)CNC(=O)[C@H](CCCNC(=N)N)NC(=O)[C@@H](NC(=O)[C@H](CC(C)C)NC(=O)[C@H](Cc1c[nH]c2ccccc12)NC(=O)[C@H](CCC(=O)O)NC(=O)[C@@H](NC(=O)[C@H](Cc1ccccc1)NC(=O)[C@H](CCC(=O)O)NC(=O)[C@H](CCCNC(=N)N)NC(=O)[C@@H](NC(=O)[C@H](C)NC(=O)[C@H](CCC(=O)O)NC(=O)[C@H](CCC(=O)O)NC(=O)[C@H](CCC(=O)O)NC(=O)[C@H](CC(C)C)NC(=O)[C@H](Cc1ccc(O)cc1)NC(=O)[C@H](CCCNC(=N)N)NC(=O)[C@H](CO)NC(=O)[C@@H](NC(=O)[C@@H](N)CC(=O)O)C(C)C)C(C)C)[C@@H](C)CC)C(C)C)C(N)=O [compound 75] (H-DVSRYLEEEAVREFIEWLVRGGPSSGAPPPSK(Palmitoyl)-NH2; N-terminus assumed) | 18600 (≈ 4900 µM) |  | IC50 (GLP-1R; Table 3, amino acid substitution variants of Jant4-K40, read-out: Bioactivity IC50): 19 nM
CCCCCCCCCCCCCCCC(=O)NCCCC[C@H](NC(=O)[C@H](CO)NC(=O)[C@@H]1CCCN1C(=O)[C@@H]1CCCN1C(=O)[C@@H]1CCCN1C(=O)[C@H](C)NC(=O)CNC(=O)[C@H](CO)NC(=O)[C@H](CO)NC(=O)[C@@H]1CCCN1C(=O)CNC(=O)CNC(=O)[C@H](CCCCN)NC(=O)[C@@H](NC(=O)[C@H](CC(C)C)NC(=O)[C@H](Cc1c[nH]c2ccccc12)NC(=O)[C@H](C)NC(=O)[C@@H](NC(=O)[C@H](Cc1ccccc1)NC(=O)[C@H](CCC(=O)O)NC(=O)[C@H](CCCNC(=N)N)NC(=O)[C@@H](NC(=O)[C@H](C)NC(=O)[C@H](CCC(N)=O)NC(=O)C(C)(C)NC(=O)[C@H](CCC(=O)O)NC(=O)[C@H](CC(C)C)NC(=O)[C@H](Cc1ccc(O)cc1)NC(=O)[C@H](CO)NC(=O)[C@H](CO)NC(=O)[C@@H](NC(=O)[C@@H](N)CC(=O)O)C(C)C)C(C)C)[C@@H](C)CC)C(C)C)C(N)=O [compound 84] (H-DVSSYLE[Aib]QAVREFIAWLVKGGPSSGAPPPSK(Palmitoyl)-NH2) | 5200 (≈ 1450 µM) |  | solubility (Solubility in buffer; [3]): 200 µg/mL (≈ 55.6 µM); IC50 (GLP-1R; [4]): 30 nM
CCCCCCCCCCCCCCCC(=O)N[C@@H](CCC(=O)NCCOCCOCC(=O)N[C@@H](CCC(=O)NCCOCCOCC(=O)NCCCC[C@H](NC(=O)[C@H](CO)NC(=O)[C@@H]1CCCN1C(=O)[C@@H]1CCCN1C(=O)[C@@H]1CCCN1C(=O)[C@H](C)NC(=O)CNC(=O)[C@H](CO)NC(=O)[C@H](CO)NC(=O)[C@@H]1CCCN1C(=O)CNC(=O)CNC(=O)[C@H](CCCCN)NC(=O)[C@@H](NC(=O)[C@H](CC(C)C)NC(=O)[C@H](Cc1c[nH]c2ccccc12)NC(=O)[C@H](C)NC(=O)[C@@H](NC(=O)[C@H](Cc1ccccc1)NC(=O)[C@H](CCC(=O)O)NC(=O)[C@H](CCCNC(=N)N)NC(=O)[C@@H](NC(=O)[C@H](C)NC(=O)[C@H](CCC(N)=O)NC(=O)[C@H](CCC(=O)O)NC(=O)[C@H](CCC(=O)O)NC(=O)[C@H](CC(C)C)NC(=O)[C@H](Cc1ccc(O)cc1)NC(=O)[C@H](CO)NC(=O)[C@H](CO)NC(=O)[C@@H](NC(=O)[C@@H](N)CC(=O)O)C(C)C)C(C)C)[C@@H](C)CC)C(C)C)C(N)=O)C(=O)O)C(=O)O [compound 59] (H-DVSSYLEEQAVREFIAWLVKGGPSSGAPPPSK([AEEA-γGlu-AEEA-γGlu-Palmitoyl])-NH2; N-terminus assumed) |  |  | solubility (Solubility in buffer; 80 mM ammonium bicarbonate buffer, pH 7.7, Solubility [mg/mL] 80 mM AmBicarb pH7.7, Table 2, 80 mM AmBicarb pH7.7): > 25000 µg/mL; IC50 (GLP-1R; Table 2, C16 linker variants of 9-40amide Jant4 K40[X], read-out: Biactivity IC50): 11 nM
CCCCCCCCCCCCCCCC(=O)NCCCC[C@H](NC(=O)[C@H](CO)NC(=O)[C@@H]1CCCN1C(=O)[C@@H]1CCCN1C(=O)[C@@H]1CCCN1C(=O)[C@H](C)NC(=O)CNC(=O)[C@H](CO)NC(=O)[C@H](CO)NC(=O)[C@@H]1CCCN1C(=O)CNC(=O)CNC(=O)[C@H](CCCCN)NC(=O)[C@@H](NC(=O)[C@H](CC(C)C)NC(=O)[C@H](Cc1c[nH]c2ccccc12)NC(=O)[C@H](C)NC(=O)[C@@H](NC(=O)[C@H](Cc1ccccc1)NC(=O)[C@H](CCC(=O)O)NC(=O)[C@H](CCCNC(=N)N)NC(=O)[C@@H](NC(=O)C(C)(C)NC(=O)[C@H](CCC(N)=O)NC(=O)[C@H](CCC(=O)O)NC(=O)[C@H](CCC(=O)O)NC(=O)[C@H](CC(C)C)NC(=O)[C@H](Cc1ccc(O)cc1)NC(=O)[C@H](CO)NC(=O)[C@H](CO)NC(=O)[C@@H](NC(=O)[C@@H](N)CC(=O)O)C(C)C)C(C)C)[C@@H](C)CC)C(C)C)C(N)=O [compound 46] (H-DVSSYLEEQ[Aib]VREFIAWLVKGGPSSGAPPPSK(Palmitoyl)-NH2; N-terminus assumed) | 17500 (≈ 4790 µM) |  | solubility (Solubility in buffer; [3]): 700 µg/mL (≈ 192 µM); IC50 (GLP-1R; [4]): 7 nM
CCCCCCCCCCCCCCCC(=O)NCCCC[C@H](NC(=O)[C@H](CO)NC(=O)[C@@H]1CCCN1C(=O)[C@@H]1CCCN1C(=O)[C@@H]1CCCN1C(=O)[C@H](C)NC(=O)CNC(=O)[C@H](CO)NC(=O)[C@H](CO)NC(=O)[C@@H]1CCCN1C(=O)CNC(=O)CNC(=O)[C@H](CCCCN)NC(=O)[C@@H](NC(=O)[C@H](CC(C)C)NC(=O)[C@H](Cc1c[nH]c2ccccc12)NC(=O)[C@H](C)NC(=O)[C@@H](NC(=O)[C@H](Cc1ccccc1)NC(=O)[C@@H](CCC(=O)O)NC(=O)[C@H](CCCNC(=N)N)NC(=O)[C@@H](NC(=O)[C@H](C)NC(=O)[C@H](CCC(N)=O)NC(=O)[C@H](CCC(=O)O)NC(=O)[C@H](CCC(=O)O)NC(=O)[C@H](CC(C)C)NC(=O)[C@H](Cc1ccc(O)cc1)NC(=O)[C@H](CO)NC(=O)[C@H](CO)NC(=O)[C@@H](NC(=O)[C@@H](N)CC(=O)O)C(C)C)C(C)C)[C@@H](C)CC)C(C)C)C(N)=O [compound 88] (H-DVSSYLEEQAVR[dE]FIAWLVKGGPSSGAPPPSK(Palmitoyl)-NH2) | 1700 (≈ 467 µM) | 27 | 
CCCCCCCCCCCCCCCC(=O)NCCCC[C@H](NC(=O)[C@H](CO)NC(=O)[C@@H]1CCCN1C(=O)[C@@H]1CCCN1C(=O)[C@@H]1CCCN1C(=O)[C@H](C)NC(=O)CNC(=O)[C@H](CO)NC(=O)[C@H](CO)NC(=O)[C@@H]1CCCN1C(=O)CNC(=O)CNC(=O)[C@H](CCCCN)NC(=O)[C@@H](NC(=O)[C@H](CC(C)C)NC(=O)[C@H](Cc1c[nH]c2ccccc12)NC(=O)[C@H](C)NC(=O)[C@@H](NC(=O)[C@H](Cc1ccccc1)NC(=O)[C@H](CCC(=O)O)NC(=O)[C@H](CCCNC(=N)N)NC(=O)[C@@H](NC(=O)[C@H](C)NC(=O)[C@H](CCC(N)=O)NC(=O)[C@@H](CCC(=O)O)NC(=O)[C@H](CCC(=O)O)NC(=O)[C@H](CC(C)C)NC(=O)[C@H](Cc1ccc(O)cc1)NC(=O)[C@H](CO)NC(=O)[C@H](CO)NC(=O)[C@@H](NC(=O)[C@@H](N)CC(=O)O)C(C)C)C(C)C)[C@@H](C)CC)C(C)C)C(N)=O [compound 85] (H-DVSSYLE[dE]QAVREFIAWLVKGGPSSGAPPPSK(Palmitoyl)-NH2; N-terminus assumed) | 10700 (≈ 2940 µM) | 41 | 
